These results are taken from patent US5827866A, “Peptidyl heterocycles useful in the treatment of thrombin related disorders” (Ortho Pharmaceutical Corporation, priority 1995, dated 1998).

For data set [1] the following is noted: rat, in vivo, iv.
Procedure: (§1) An ex vivo assay was conducted to determine the duration of action of the compounds of Formula I. For this i.v. assay male rats (Long Evans, 350-500 g) were implanted with a teflon cannulae via the femoral artery while under anesthesia (pentobarbital i.p., 35 mg/kg). […] The animals were allowed to recover for at least 24 h after the surgical procedure.
(§2) The test compound was dispersed in water and delivered to the animal (0.25 mL) via the femoral vein. […] A plasma sample was obtained by centrifuging the blood at 10,000 rpm for 5 min. This sample is analyzed for thrombin inhibition using the chromogenic assay, described below.
(§3) Datum was collected over a 30 min period and the initial rate of substrate hydrolysis (V0 (mOD/min)) was calculated with an analysis program (Softmax, Molecular Devices).
(§4) The time to half plasma elimination (t 1/2) was calculated from the slope of Vo vs. time, using the following equation:
Data set [2] is described as follows: Ex vivo bioavailability assay (i.v. and p.o.). Also on record: species or system male rats. The settings on record: rat, p.o. vs i.v.; drug in plasma extrapolated from thrombin inhibition. How it is done:
Bioavailability was determined by an ex vivo assay which incorporated hydrolysis rates from drug administered both i.v. and p.o. In this assay male rats were prepared as described above with a teflon tube implanted in their femoral artery.
A standard curve was generated by adding of drug or vehicle (100 μL) to whole blood (900 μL) followed by incubating (5 min) and centrifuging to obtain plasma. The percentage of thrombin inhibition was calculated by comparing the V0 of the vehicle to that of the drug treated samples. Datum from several runs were normalized with a statistical package (SAS) to generate a standard curve.
The percentage of thrombin inhibition in the treated animals was calculated by comparing the V0 prior to treatment with the V0 obtained from samples collected after treatment. The percent inhibition was applied to the standard curve (generated above) using the statistical package (SAS) and the quantity of drug in the sample was extrapolated.
Bioavailability (Bioavail.) was calculated from the plots of the extrapolated drug in sample vs. time for both i.v. and p.o. administration using the following equation:
%Bioavail. =([…])×(area
under p.o. curve/area under curve i.v.)

Data set [3] is described as follows: Ex vivo i.v. assay for duration of action (time to half plasma elimination). To be noted: rat, from slope of Vo vs. time of plasma thrombin inhibition.
Procedure: as §1, §2, §3, §4

SMILES strings stand for the structures. Like-named read-outs stand apart in the source and are kept apart here.

The compound `CCOC(=O)c1csc(C(=O)[C@H](CCCNC(=N)N)NC(=O)[C@@H]2CCCN2C(=O)[C@@H](Cc2ccccc2)NC)n1` [Compound 19] came in with a t1/2 in data set [1] of 14 min.

Consider `CN[C@H](Cc1ccccc1)C(=O)N1CCC[C@H]1C(=O)N[C@@H](CCCNC(=N)N)C(=O)c1nc(C(=O)O)cs1` [Compound 54], for which the t1/2 in data set [1] worked out at 15 min.

`CN[C@H](Cc1ccccc1)C(=O)N1CCC[C@H]1C(=O)N[C@@H](CCCNC(=N)N)C(=O)c1nc2ccccc2s1` [Compound 1, N-METHYL-D-PHENYLALANYL-N-[4-[(AMINOIMINOMETHYL)AMINO]-1S-[(BENXOTHIAZOL-2- YL)CARBONYL]BUTYL]-L-PROLINAMIDE]: in data set [2], the “Bloavail,” value is recorded as 1.2%. In data set [1], this compound returned a t1/2 of 19 min.

For the compound `CNC(C(=O)N1CCCC1C(=O)NC(CCCNC(=N)N)C(=O)c1nc2ccccc2s1)c1ccccc1` [Compound 33, N-METHYL-D-PHENYLGLYCYL-N-[4-[(AMINOIMINOMETHYL)AMINO]-1S-[(BENXOTHIAZOL-2- YL)CARBONYL]BUTYL]-L-PROLINAMIDE], the t1/2 in data set [1] came out at 18 min.

`CN[C@H](Cc1ccc(F)cc1)C(=O)N1CCC[C@H]1C(=O)N[C@@H](CCCNC(=N)N)C(=O)c1nc2ccccc2s1` [Compound 32, N-METHYL-D-(4-FLUOROPHENYL)ALANYL-N-[4-[(AMINOIMINOMETHYL)AMINO)-1S-[(BENXOTHIAZOL-2-YL)CARBONYL]BUTYL]-L-PROLINAMIDE] showed a t1/2 in data set [1] of 19 min.

Compound `CN[C@H](Cc1c(F)c(F)c(F)c(F)c1F)C(=O)N1CCC[C@H]1C(=O)N[C@@H](CCCNC(=N)N)C(=O)c1nc2ccccc2s1` [Compound 30] displayed a t1/2 in data set [1] of 6 min.

In data set [3], `CN[C@H](Cc1ccccc1)C(=O)N1CCC[C@H]1C(=O)N[C@@H](CCCNC(=N)N)C(=O)c1nc2ccc(O)cc2s1` [Compound 25] had a t1/2 of 14 min.

The compound `CN[C@H](Cc1ccccc1)C(=O)N1CCC[C@H]1C(=O)N[C@@H](CCCNC(=N)N)C(=O)c1nc2ccc(CO)cc2s1` [Compound 15] gave a t1/2 in data set [1] of 16 min.

Compound `CN[C@H](CC1CCCCC1)C(=O)N1CCC[C@H]1C(=O)N[C@@H](CCCNC(=N)N)C(=O)c1nc2ccccc2s1` [Compound 29, N-METHYL-D-CYCLOHEXYLALANYL-N-[4-[(AMINOIMINOMETHYL)AMINO]-1S-[(BENXOTHIAZOL-2-YL)CARBONYL]BUTYL]-L-PROLINAMIDE] had a t1/2 in data set [1] of 14 min.

As for `CC(=O)N[C@H](Cc1ccccc1)C(=O)N1CCC[C@H]1C(=O)N[C@@H](CCCNC(=N)N)C(=O)c1nc2ccccc2s1.O=C(O)C(F)(F)F` [Compound 35], the t1/2 in data set [1] is recorded as 11 min.

Turning to `CN[C@H](Cc1ccccc1)C(=O)N1CCC[C@H]1C(=O)N[C@@H](CCCNC(=N)N)C(=O)c1nc2c(s1)CCCC2` [Compound 51], the t1/2 in data set [1] turned out to be 17 min.

In data set [1], `CN[C@H](Cc1ccccc1)C(=O)N1CCC[C@H]1C(=O)N[C@@H](CCCNC(=N)N)C(=O)c1nc2ccc3ccccc3c2s1` [Compound 52] displayed a t1/2 of 8 min.

In the case of `CN[C@H](Cc1ccccc1)C(=O)N1CCC[C@H]1C(=O)N[C@@H](CCCNC(=N)N)C(=O)c1nc2ccc(C(=O)OC)cc2s1` [Compound 12], in data set [1], the t1/2 stood at 43 min.

For the compound `CNC(Cc1ccccc1)C(=O)N1CCCC1C(=O)NC(CCCNC(=N)N)C(=O)c1nccs1` (centres unmarked) [Compound 4], the t1/2 in data set [1] came to 16 min.

In turn, `CNC(C(=O)N1CCC[C@H]1C(=O)N[C@@H](CCCNC(=N)N)C(=O)c1nc2ccccc2s1)c1ccccc1` (some centres unmarked) [Compound 34] returned a t1/2 in data set [3] of 26 min.

`CN[C@@H](C(=O)N1CCC[C@H]1C(=O)N[C@@H](CCCNC(=N)N)C(=O)c1nc2ccccc2s1)C1CCCCC1` [Compound 37, N-METHYL-D-CYCLOHEXYLGLYCYL-N-[4-[(AMINOIMINOMETHYL)AMINO]-1S-[(BENXOTHIAZOL-2-YL)CARBONYL]BUTYL]-L-PROLINAMIDE] registered a t1/2 in data set [1] of 42 min.

In data set [1], `CNC(Cc1ccccc1)C(=O)N1CCCC1C(=O)NC(CCCNC(=N)N)C(=O)c1nc2ccccc2[nH]1` (centres unmarked) [Compound 21] returned a t1/2 of 5 min.

Take `CN[C@H](Cc1ccccc1)C(=O)N1CCC[C@H]1C(=O)N[C@@H](CCCNC(=N)N)C(=O)c1nc2ccc(F)cc2s1` [Compound 17]: the t1/2 in data set [1] turned out to be 8 min.

Regarding `CN[C@H](Cc1ccccc1)C(=O)N1CCC[C@H]1C(=O)N[C@@H](CCCNC(=N)N)C(=O)c1nc2ccc(C(=O)O)cc2s1` [Compound 13], the t1/2 in data set [1] is on record as 25 min.
